Experimental data: ChEMBL document CHEMBL1201862, “PubChem BioAssay data set” (2004)
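The compound was tested at five concentrations on cells cultured in 96-well plates, with a 48-hour exposure period. GI50: concentration for 50% inhibition of growth.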 The source made the active and inactive calls. Rule as the data show it: active = GI50 up to about 1.1 µM and inactive = higher.

Experiments:
Experiment in all cases: DTP human tumour cell line panel, 48 h
SN12C = tested on: SN12C
U-251 = tested on: U-251
Malme-3M = tested on: Malme-3M
M14 = tested on: M14
UO-31 = tested on: UO-31
COLO 205 = tested on: COLO 205
SK-OV-3 = tested on: SK-OV-3
HOP-62 = tested on: HOP-62
HOP-92 = tested on: HOP-92
SK-MEL-28 = tested on: SK-MEL-28
MOLT-4 = tested on: MOLT-4
HCT-116 = tested on: HCT-116
SF-539 = tested on: SF-539
HL-60 = tested on: HL-60
SF-295 = tested on: SF-295
SF-268 = tested on: SF-268
OVCAR-8 = tested on: OVCAR-8
SW-620 = tested on: SW-620
IGROV-1 = tested on: IGROV-1

Measured: GI50

COc1cc2nc(-c3ccccc3)cc(O)c2cc1OC
inactive: SN12C 31.4 µM | U-251 6.95 µM | Malme-3M > 50.6 µM | M14 9.02 µM | UO-31 52 µM | COLO 205 4.2 µM | SK-OV-3 35.6 µM | HOP-62 19 µM | HOP-92 33.7 µM | SK-MEL-28 36.2 µM | MOLT-4 17.6 µM | HCT-116 6.1 µM | SF-539 14.3 µM | HL-60 5.78 µM | SF-295 18.5 µM | SF-268 41.6 µM | OVCAR-8 35.1 µM | SW-620 10.8 µM | IGROV-1 28.2 µM

CCCCC(=O)N/S(=N/C(=O)c1ccccc1)C(Cl)(Cl)Cl (stereo not given)
inactive: SN12C > 100 µM | U-251 > 100 µM | Malme-3M > 100 µM | M14 > 100 µM | UO-31 > 100 µM | COLO 205 > 100 µM | SK-OV-3 > 100 µM | HOP-62 > 100 µM | HOP-92 > 100 µM | SK-MEL-28 > 100 µM | MOLT-4 > 100 µM | HCT-116 > 100 µM | SF-539 > 100 µM | HL-60 79.1 µM | SF-295 > 100 µM | SF-268 > 100 µM | OVCAR-8 > 100 µM | SW-620 > 100 µM | IGROV-1 > 100 µM

CCCCC(=O)OC[n+]1ccc(-c2c(COC(=O)NC(C)C)c(COC(=O)NC(C)C)c3n2CCC3)cc1
inactive: SN12C 40.3 µM | U-251 > 71.3 µM | Malme-3M > 100 µM | M14 > 77.4 µM | UO-31 > 100 µM | COLO 205 > 80.9 µM | SK-OV-3 > 100 µM | HOP-62 > 59.6 µM | HOP-92 > 84.1 µM | SK-MEL-28 > 100 µM | MOLT-4 19.5 µM | HCT-116 > 94.8 µM | SF-539 40.4 µM | HL-60 25.5 µM | SF-295 > 76.2 µM | SF-268 57.9 µM | OVCAR-8 > 100 µM | SW-620 > 76.2 µM | IGROV-1 > 100 µM

CCCC[C@H]1C(=O)O[C@H](C)[C@H](NC(=O)c2cccc(NC=O)c2OC)C(=O)O[C@@H](C)[C@@H]1OC(=O)C(C)CC.CCCC[C@H]1C(=O)O[C@H](C)[C@H](NC(=O)c2cccc(NC=O)c2OC)C(=O)O[C@@H](C)[C@@H]1OC(=O)CC(C)C (stereo not given in full)
inactive: SN12C 17.3 µM | U-251 9.46 µM | Malme-3M 15.8 µM | M14 14.6 µM | UO-31 14.8 µM | COLO 205 11.7 µM | SK-OV-3 12.5 µM | HOP-62 17.8 µM | HOP-92 6.98 µM | SK-MEL-28 21.6 µM | MOLT-4 11.2 µM | HCT-116 12.1 µM | SF-539 15.8 µM | HL-60 10.6 µM | SF-295 7.45 µM | SF-268 14.2 µM | OVCAR-8 12.9 µM | SW-620 20.3 µM | IGROV-1 7.1 µM

O=C(NC(O)(C(F)(F)F)C(F)(F)F)c1ccccc1
inactive: SN12C > 100 µM | U-251 > 100 µM | Malme-3M > 100 µM | M14 > 100 µM | UO-31 > 100 µM | COLO 205 > 100 µM | SK-OV-3 > 100 µM | HOP-62 > 100 µM | HOP-92 > 100 µM | SK-MEL-28 > 100 µM | MOLT-4 > 100 µM | HCT-116 > 100 µM | SF-539 > 100 µM | HL-60 > 100 µM | SF-295 > 100 µM | SF-268 > 100 µM | OVCAR-8 > 100 µM | SW-620 > 100 µM | IGROV-1 > 100 µM

COc1cc(-c2[o+]c3cc(O)cc(O)c3cc2O)cc(O)c1O
inactive: SN12C > 100 µM | U-251 > 100 µM | Malme-3M > 100 µM | M14 > 100 µM | UO-31 > 100 µM | COLO 205 > 100 µM | SK-OV-3 > 100 µM | HOP-62 > 100 µM | HOP-92 > 100 µM | SK-MEL-28 > 100 µM | MOLT-4 > 100 µM | HCT-116 > 100 µM | SF-539 > 100 µM | HL-60 > 100 µM | SF-295 > 100 µM | SF-268 > 100 µM | OVCAR-8 > 100 µM | SW-620 30.6 µM | IGROV-1 > 100 µM

O=P(c1ccccc1)(c1ccccc1)N1O[C@@H](c2ccccc2)C=C[C@H]1c1ccccc1
inactive: SN12C 4.36 µM | U-251 4.37 µM | Malme-3M 14.5 µM | M14 10.9 µM | UO-31 5.13 µM | COLO 205 12.3 µM | SK-OV-3 15.1 µM | HOP-62 13.1 µM | HOP-92 11.6 µM | SK-MEL-28 17.3 µM | MOLT-4 5.32 µM | HCT-116 4.11 µM | SF-539 16.2 µM | HL-60 5.24 µM | SF-295 11.6 µM | SF-268 12.4 µM | OVCAR-8 12.8 µM | SW-620 12.9 µM | IGROV-1 10.8 µM

CCCCC(=O)OC[n+]1cccc(-c2c(COC(=O)NC(C)C)c(COC(=O)NC(C)C)c3n2CCC3)c1
inactive: SN12C 31.8 µM | U-251 45.3 µM | Malme-3M 32.7 µM | M14 40.5 µM | UO-31 27 µM | COLO 205 72.8 µM | SK-OV-3 > 57.8 µM | HOP-62 56.1 µM | HOP-92 26.3 µM | SK-MEL-28 > 100 µM | MOLT-4 8.93 µM | HCT-116 37.2 µM | SF-539 28.6 µM | HL-60 10.7 µM | SF-295 52.2 µM | SF-268 24.8 µM | OVCAR-8 44 µM | SW-620 38.5 µM | IGROV-1 51.5 µM

CCN(CC)CCCn1c(=O)c2cccnc2n2c3c(=O)n(C)c(=O)n(C)c3nc12
inactive: SN12C > 100 µM | U-251 > 100 µM | Malme-3M > 100 µM | M14 > 100 µM | UO-31 > 100 µM | COLO 205 > 100 µM | SK-OV-3 > 100 µM | HOP-62 > 100 µM | HOP-92 > 100 µM | SK-MEL-28 > 100 µM | MOLT-4 > 100 µM | HCT-116 > 100 µM | SF-539 > 100 µM | HL-60 > 100 µM | SF-295 > 100 µM | SF-268 > 100 µM | OVCAR-8 > 100 µM | SW-620 > 100 µM | IGROV-1 > 100 µM

CCC1(c2ccc(N3C(=O)c4cc(OC)c(OC)cc4C3=O)cc2)CCC(=O)NC1=O (stereo not given)
inactive: SN12C > 10 µM | U-251 > 10 µM | Malme-3M > 10 µM | M14 > 10 µM | UO-31 > 10 µM | COLO 205 > 10 µM | SK-OV-3 > 10 µM | HOP-62 > 10 µM | HOP-92 > 10 µM | SK-MEL-28 > 10 µM | MOLT-4 > 10 µM | HCT-116 > 10 µM | SF-539 > 10 µM | HL-60 > 10 µM | SF-295 > 10 µM | SF-268 > 10 µM | OVCAR-8 > 10 µM | SW-620 > 10 µM | IGROV-1 > 10 µM
